Results as given in PMC6009911, “Inhibition of human cytochromes P450 2A6 and 2A13 by flavonoids, acetylenic thiophenes and sesquiterpene lactones from Pluchea indica and Vernonia cinerea” (Journal of Enzyme Inhibition and Medicinal Chemistry, 2017).
Read-outs that look alike come from different tables or passages of the source.

Columns and labels:
Type in all cases: biochemical
CYP2A6 [1] = biological target: T1, CYP2A6 (Homo sapiens, UniProt P11509); experiment: Inhibition of CYP2A6-mediated nicotine metabolism; parameters: made in house; settings: compound at IC50 value; nicotine 50 μM; 30 min; Supplemental Figure S2
T1 sequence (P11509 1-494): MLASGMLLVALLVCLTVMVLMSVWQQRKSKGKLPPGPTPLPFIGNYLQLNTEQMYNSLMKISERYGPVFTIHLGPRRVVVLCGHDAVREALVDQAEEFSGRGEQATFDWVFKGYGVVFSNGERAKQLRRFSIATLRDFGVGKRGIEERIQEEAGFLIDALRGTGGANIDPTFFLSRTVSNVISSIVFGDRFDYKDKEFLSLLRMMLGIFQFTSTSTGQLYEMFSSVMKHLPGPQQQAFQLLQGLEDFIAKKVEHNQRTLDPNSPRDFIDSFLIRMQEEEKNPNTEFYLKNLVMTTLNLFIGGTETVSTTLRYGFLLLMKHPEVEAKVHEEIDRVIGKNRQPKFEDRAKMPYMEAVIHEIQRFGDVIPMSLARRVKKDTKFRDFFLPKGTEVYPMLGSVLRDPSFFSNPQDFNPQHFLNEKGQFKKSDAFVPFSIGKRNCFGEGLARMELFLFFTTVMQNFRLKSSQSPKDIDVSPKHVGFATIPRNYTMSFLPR
Method: Supplementary Figure S2. Inhibition effects of thiophene 11 on CYP2A6-mediated […]
mediated nicotine metabolism (B). Nicotine metabolism in the presence and absence of inhibitory test compounds, at IC50 value, was performed by incubation of the reaction mixture with nicotine substrate (a final concentration of 50 μM) prior to initiation of each reaction with 50 μM NADPH at room temperature. Each reaction was terminated by addition of ice-cold acetronitrile at 30 min incubation and 50 pmol 7-hydroxycoumarin as internal standard was added. The reaction was centrifuged (12,000 rpm, 10 min, 4 °C) and 20 μl of each sample was analyzed on symmetry RP-C18 column (3.9×150 mm). Gradient condition was isocratic of 12% ACN: 2-propanol (7:3) in 10 mM potassium phosphate buffer (pH 7.4) at flow rate of 1 ml/min. The nicotine peak area in each reaction was compared with that of time zero. The enzyme activity was determined as percent substrate consumption over 30 min. The reactions were […]
(1 picture or pasted object on this page, not shown here)

CYP2A13 [2] = biological target: T2, CYP2A13 (Homo sapiens, UniProt Q16696); experiment: Mechanism-based (time- and NADPH-dependent) inactivation of CYP2A13
T2 construct: made in house
T2 sequence (Q16696 1-494): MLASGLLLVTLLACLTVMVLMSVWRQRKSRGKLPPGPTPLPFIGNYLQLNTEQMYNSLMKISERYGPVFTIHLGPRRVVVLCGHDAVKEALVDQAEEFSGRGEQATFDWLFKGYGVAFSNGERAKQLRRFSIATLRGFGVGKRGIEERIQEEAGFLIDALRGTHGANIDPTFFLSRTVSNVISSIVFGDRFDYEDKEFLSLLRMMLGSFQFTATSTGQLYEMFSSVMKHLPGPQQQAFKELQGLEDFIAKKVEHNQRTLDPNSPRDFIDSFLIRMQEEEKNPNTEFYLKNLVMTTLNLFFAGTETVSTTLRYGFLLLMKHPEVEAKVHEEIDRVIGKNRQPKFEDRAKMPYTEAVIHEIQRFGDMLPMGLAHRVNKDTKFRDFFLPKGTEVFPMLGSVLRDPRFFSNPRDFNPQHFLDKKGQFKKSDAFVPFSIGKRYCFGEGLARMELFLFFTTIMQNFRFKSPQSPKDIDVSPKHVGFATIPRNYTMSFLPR
Summary of the method: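 Inhibitor preincubated with enzyme and NADPH for 0, 10, 20 and 30 min before the reaction. KI and Kinact derived from double reciprocal plots of kobs versus inhibitor concentration by linear regression; methoxsalen served as reference inactivator.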

CYP2A13 [3] = biological target: T2, CYP2A13; experiment: Inhibition of CYP2A13-mediated coumarin 7-hydroxylation, enzymatic reconstitution assay
Summary of the method: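 Purified recombinant CYP2A6 or CYP2A13 reconstituted with rat CYPOR; coumarin 7-hydroxylation read by 7-hydroxycoumarin fluorescence (ex 355/em 460 nm), inhibition as % of vehicle control with IC50 fitted.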

CYP2A6 [4] = biological target: T1, CYP2A6; experiment: Inhibition of CYP2A6-mediated coumarin 7-hydroxylation, enzymatic reconstitution assay; parameters: made in house
Method: Inhibitory effect of plant extracts, fractions, subfractions and constituents was determined by inhibition assay on CYP2A6- and CYP2A13-mediated coumarin 7-hydroxylation. The recombinant human CYP2A6, CYP2A13 and rat NADPH-dependent cytochrome P450 oxidoreductase (CYPOR) proteins were expressed, purified, according to the methods previously described. […] Rate of 7-hydroxycoumarin product formation was measured on spectrofluorometer (Shimadzu, Kyoto, Japan) at λex = 355 nm, λem = 460 nm. Inhibition effects were determined by incubation with extracts, fractions or purified compounds with coumarin substrate in the reaction mixture and calculated as per cent relative inhibition compared with vehicle control reaction[20] and IC50 values were calculated using GraphPad Prism 5 (GraphPad Software Inc., La Jolla, CA).
(§1) MBI requires NADPH and time to generate reactive intermediate as inhibitor and ultimately inactivates the enzyme. MBI was evaluated by pre-incubation with each test inhibitor in the reaction at different time periods (0, 10, 20 and 30 min) in the presence of NADPH for time-dependent assay, as described. The apparent inactivation constants, KI and Kinact, were obtained from double reciprocal plots of kobs versus inhibitor concentrations by linear regression analysis on GraphPad Prism 5. Methoxsalen was used as a control mechanism-based inhibitor for time- and NADPH-dependent inhibition assays.

CYP2A6 [5] = biological target: T1, CYP2A6; experiment: Effects of trapping agents and dialysis on inactivation of CYP2A6; parameters: made in house; settings: CYP2A6 inhibition reaction mixture, probe coumarin, compound 5 µM
Method: as §1
To explore whether inactivation of CYP2As by thiophenes 9–11 and of CYP2A13 by hirsutinolides 5-8 could be reversed, the removal of reversible inhibitory compounds by dialysis and addition of trapping agents (GSH, semicarbazide, catalase or potassium ferricyanide) in the inhibition reaction mixture were performed. […] Similarly, mechanism-based inactivation of both CYP2A6 and CYP2A13 by thiophenes 9–11 could not be reversed (Table 3).

CYP2A6 [6] = biological target: T1, CYP2A6; experiment: Mechanism-based (time- and NADPH-dependent) inactivation of CYP2A6; parameters: made in house
Method: as §1

CYP2A13 [7] = biological target: T2, CYP2A13; experiment: Effects of trapping agents and dialysis on inactivation of CYP2A13; settings: CYP2A13 inhibition reaction mixture, probe coumarin, compound 5 µM
Summary of the method: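 Recombinant enzyme preincubated with inhibitor and NADPH for 0, 10, 20 and 30 min; KI and kinact taken from double-reciprocal plots of kobs versus inhibitor concentration by linear regression. Reversibility probed by dialysis and by adding trapping agents (GSH, semicarbazide, catalase or potassium ferricyanide). Methoxsalen served as mechanism-based control.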

[8] = time- and concentration-dependent inactivation
[9] = read-out: Per cent remaining activity, 70 μM K3Fe(CN)6
[10] = read-out: Per cent remaining activity, 2 mM GSH
[11] = read-out: Per cent remaining activity, 5 mM semicarbazide
[12] = read-out: Per cent remaining activity, 2000 U catalase
[13] = read-out: Per cent remaining activity, Dialysis (+) NADPH
[14] = read-out: Per cent remaining activity, Dialysis (−) NADPH
[15] = read-out: Per cent remaining activity, Pre-incubation

inhibition of CYP2A6-mediated nicotine metabolism (CYP2A6 [1]): showed inhibition | kinact (CYP2A13 [2]; pre-incubation 0-30 min with NADPH): 0.000833 s⁻¹ | KI (inactivation) (CYP2A13 [2]; pre-incubation 0-30 min with NADPH, read-out: CYP2A13 KI (inactivation constant)): 670 ± 80 nM | KI, CYP2A13 (in Figure 2) (CYP2A13 [2]; [8]): 0.67 ± 0.08 | CYP2A13 Mode of inhibition (CYP2A13 [3]): Mixed type | IC50 (CYP2A13 [3]; 10-min pre-incubation in the presence of NADPH, read-out: IC50 CYP2A13 Pre-incubation): 1470 ± 120 nM | IC50 (CYP2A13 [3]; coincubation, coumarin 2 µM, read-out: IC50 CYP2A13 Coincubation): 2400 ± 330 nM | Ki (CYP2A13 [3]; coumarin 0–40 µM): 1080 ± 50 nM | CYP2A6 Mode of inhibition (CYP2A6 [4]): Mixed type | IC50 (CYP2A6 [4]; 10-min pre-incubation in the presence of NADPH, read-out: IC50 CYP2A6 Pre-incubation): 180 ± 10 nM | IC50 (CYP2A6 [4]; coincubation, coumarin 2 µM, read-out: IC50 CYP2A6 Coincubation): 3900 ± 200 nM | Ki (CYP2A6 [4]; coumarin 0–40 µM): 1800 ± 180 nM | activity at 5 µM (CYP2A6 [5]; [9]): 11.2 ± 2.96% | activity at 5 µM (CYP2A6 [5]; [10]): 8.42 ± 0.9% | activity at 5 µM (CYP2A6 [5]; [11]): 12.9 ± 3.47% | activity at 5 µM (CYP2A6 [5]; [12]): 14.4 ± 1.41% | activity at 5 µM (CYP2A6 [5]; [13]): 10.1 ± 1.84% | activity at 5 µM (CYP2A6 [5]; [14]): 82.4 ± 2.49% | activity at 5 µM (CYP2A6 [5]; [15]): 12.5 ± 1.93% | kinact (CYP2A6 [6]; human, recombinant human CYP2A6, probe coumarin, pre-incubation 0-30 min with NADPH): 0.00167 s⁻¹ | KI (inactivation) (CYP2A6 [6]; human, recombinant human CYP2A6, probe coumarin, pre-incubation 0-30 min with NADPH, read-out: CYP2A6 KI (inactivation constant)): 110 ± 20 nM | KI, CYP2A6 (in Figure 2) (CYP2A6 [6]; [8]): 0.11 ± 0.02 | activity at 5 µM (CYP2A13 [7]; [9]): 18.87 ± 0.18% | activity at 5 µM (CYP2A13 [7]; [10]): 23.5 ± 1.72% | activity at 5 µM (CYP2A13 [7]; [11]): 19.6 ± 2.73% | activity at 5 µM (CYP2A13 [7]; [12]): 19.5 ± 2.95% | activity at 5 µM (CYP2A13 [7]; [13]): 19.6 ± 4.21% | activity at 5 µM (CYP2A13 [7]; [14]): 96.84 ± 0.73% | activity at 5 µM (CYP2A13 [7]; [15]): 20.2 ± 2.76%
Structure (SMILES): CC#Cc1ccc(C#CC#CC(O)CO)s1 (centres unmarked) [Thiophene 11, 2-(prop-1-inyl)-5–(5,6-dihydroxyhexa-1,3-diinyl) thiophene]
